Like-named read-outs stand apart in the source and are kept apart here.
Target: T1, human TRPM8 receptor (Homo sapiens, UniProt Q7Z2W7)
T1 construct: expressed in transfected cells; host or cells: HEK293, stably transfected, tetracycline-inducible expression
Experiment: Assay on TRPM8 modulators: Ca2+-sensitive dye (Fluo-4) fluorescence in HEK293-TRPM8 test cells
Format: cell-based
Parameters: relative TRPM8 activation: concentration or dose not given beside the values
Conditions: for relative TRPM8 activation: HEK293 cells recombinantly expressing human TRPM8; for EC50: HEK293-TRPM8 cells
Excerpt: The starting point for cloning the human TRPM8 receptor is an LnCaP cDNA bank. This is commercially available (e.g. BioChain, Hayward, USA) or can be produced from the andro gene-sensitive human prostate adenocarcinoma cell line LnCaP (e.g. ATCC, CRL1740 or ECACC, 891 1021 1) using standard kits.
The coding TRPM8 sequence (see e.g. http://www. ncbi.nlm.nih.gov/entrez/viewer.fcgi?db=nuccore&id=109689694) can be PCR-amplified and cloned using standard methods. The human TRPM8 gene isolated in this way was used to produce the plasmid plnd_M8. Alternatively, the TRPM8 gene can also be produced synthetically.
A stably transfected HEK293 cell line was produced as a test cell system using human TRPM8 DNA. Preference was given to HEK293, which offers the possibility of inducing TRPM8 expression using tetracycline via the plasmid introduced.
A test similar to the test already described in the literature by Behrendt H. J. et al, Br. J. Pharmacol. 141, 2004, 737-745, is performed. The agonization or antagonization of the receptor can be quantified using a Ca^2+-sensitive dye (e.g. FURA, Fluo-4 etc.). Agonists alone cause an increase in the Ca^2+ signal; antagonists cause a reduction in the Ca^2+ signal in the presence of e.g. menthol (detected in each case using the Fluo-4 dye, which has different fluorescence properties due to Ca^2+ ions).
First, a fresh culture of transformed HEK cells is prepared in cell culture flasks in the usual way. The HEK293-TRPM8 test cells are detached from the cell culture flasks using trypsin and 40,000 cells/well are seeded with 100 μl medium in 96-well plates (Greiner #655948 poly-D-lysine-coated). To induce the TRPM8 receptor, tetracycline is added to the growth medium (DMEM/HG, 10% FCS tetracycline-free, 4 mM L-glutamine, 15 μg/ml blasticidin, 100 μg/ml hygromycin B, 1 μg/ml tetracycline).
On the following day, the cells are loaded with Fluo-4AM dye and the test is performed. Proceed as follows: Addition of 100 μl/well staining solution Ca-4 kit (RB 141, Molecular Devices) to each 100 μl medium (DMEM/HG, 10% FCS tetracycline-free, 4 mM L-glutamine, 15 μg/ml blasticidin, 100 μg/ml hygromycin B, 1 μg/ml tetracycline).
Incubation in incubator, 30 minutes/37° C./5% CO2, 30 minutes/RT.
Preparation of the test substances (different concentrations in 200 μl HBSS buffer), as well as positive controls (different concentrations of menthol, icilin or lonomycin in 200 μl HBSS buffer) and negative controls (only 200 μl HBSS buffer) Addition of the test substances in quantities of 50 μl/well and measurement of the fluorescence change (e.g. in the assay device FLIPR, Molecular Devices or NovoStar, BMG) at 485 nm excitation, 520 nm emission, and evaluation of the potency of the different substances/concentrations and determination of the ECG. e.g. in the FLIPR assay device, Molecular Devices or NovoStar, BMG) at 485 nm excitation, 520 nm emission, and evaluation of the potency of the various substances/concentrations and determination of the EC50 values.
The test substances are used in triplicates in concentrations of 0.1-200 μM in the assay. Normally, the compounds are kept ready in DMSO solutions and diluted down to a maximum DMSO concentration of 2% for the assay.
The activity of the active substances in relation to activation of the TRPM8 channel is determined using the assay described. This is done in a concentration-dependent manner. For each active substance, 6 to 10 concentrations are measured as standard. A mathematical method (4-parameter or 5-parameter logistic curve fitting) can be used to determine the EC50 value as the inflection point of the sigmoidal curve from the activity values determined. These are standard biochemical methods that are familiar to experts.

[1] = TRPM8 activation, 6 to 10 concentrations, logistic curve fitting, read-out: EC50 value

T1 sequence (Q7Z2W7 whole entry): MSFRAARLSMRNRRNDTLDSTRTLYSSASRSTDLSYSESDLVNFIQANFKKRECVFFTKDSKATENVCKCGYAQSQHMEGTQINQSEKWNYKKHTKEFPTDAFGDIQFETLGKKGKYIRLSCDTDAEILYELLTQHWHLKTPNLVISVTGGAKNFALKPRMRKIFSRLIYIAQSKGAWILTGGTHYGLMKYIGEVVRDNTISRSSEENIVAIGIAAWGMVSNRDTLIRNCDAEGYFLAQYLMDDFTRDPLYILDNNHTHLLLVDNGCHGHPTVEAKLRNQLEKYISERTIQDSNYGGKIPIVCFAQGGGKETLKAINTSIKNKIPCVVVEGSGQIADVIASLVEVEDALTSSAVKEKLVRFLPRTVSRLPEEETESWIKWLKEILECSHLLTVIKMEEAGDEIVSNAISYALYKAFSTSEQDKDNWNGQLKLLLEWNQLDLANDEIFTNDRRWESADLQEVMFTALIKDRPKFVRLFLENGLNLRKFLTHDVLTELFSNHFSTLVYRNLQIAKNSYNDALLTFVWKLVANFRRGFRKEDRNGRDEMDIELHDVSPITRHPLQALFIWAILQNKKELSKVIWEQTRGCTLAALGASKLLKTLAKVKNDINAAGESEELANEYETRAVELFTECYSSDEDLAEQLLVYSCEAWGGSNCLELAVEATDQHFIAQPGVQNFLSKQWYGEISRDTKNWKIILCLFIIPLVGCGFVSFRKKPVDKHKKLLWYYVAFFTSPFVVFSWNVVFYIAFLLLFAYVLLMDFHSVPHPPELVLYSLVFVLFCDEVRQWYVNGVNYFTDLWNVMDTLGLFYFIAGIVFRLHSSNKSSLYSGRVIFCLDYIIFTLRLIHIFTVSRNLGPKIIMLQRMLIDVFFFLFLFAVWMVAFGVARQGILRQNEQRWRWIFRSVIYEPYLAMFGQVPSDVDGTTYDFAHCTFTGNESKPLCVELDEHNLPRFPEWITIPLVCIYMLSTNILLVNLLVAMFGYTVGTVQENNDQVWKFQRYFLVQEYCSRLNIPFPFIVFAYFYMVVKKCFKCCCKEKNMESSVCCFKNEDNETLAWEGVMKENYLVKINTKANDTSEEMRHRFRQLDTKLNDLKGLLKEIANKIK

Structure (SMILES) | relative TRPM8 activation [%] | other results
CNC(=O)C(C)Sc1ncco1 (stereo not drawn) [Compound A-50, N-methyl-2-oxazol-2-ylsulfanyl-propanamide] | 1 | 
CC(C)C(=O)CSc1nc(-c2ccccc2)c(-c2ccccc2)o1 [Compound A-51, 1-(4,5-diphenyloxazol-2-yl)sulfanyl-3-methyl-butan-2-one] | 1 | 
CCCC(C)NC(=O)CSc1nc(-c2ccccc2)c(-c2ccccc2)o1 (stereo not drawn) [Compound A-52, 2-(4,5-diphenyloxazol-2-yl)sulfanyl-N-(1-methylbutyl) acetamide] | 1 | 
COCCNC(=O)CSc1nc(-c2ccccc2)c(-c2ccccc2)o1 [Compound A-53, 2-(4,5-diphenyloxazol-2-yl)sulfanyl-N-(2-methoxyethyl) acetamide] | 1 | 
c1ccc(CSc2nc(-c3ccccc3)c(-c3ccccc3)o2)cc1 [Compound A-54, 2-benzylsulfanyl-4,5-diphenyl-oxazole] | 1 | 
Cc1nc(SC(C)C(=O)NC2CC2)[nH]c1C (stereo not drawn) [Compound A-56, N-cyclopropyl-2-[(4,5-dimethyl-1H-imidazol-2-yl)sulfanyl] propanamide] | 1 | 
CC(=O)OCCSc1nc(-c2ccccc2)c(-c2ccccc2)o1 [Compound A-57, 2-(4,5-diphenyloxazol-2-yl)sulfanylethyl acetate] | 1 | 
COc1ccc(-c2nc(SCC(=O)NC3CC3)oc2-c2ccc(OC)cc2)cc1 [Compound A-58, 2-[4,5-bis(4-methoxyphenyl)oxazol-2-yl]sulfanyl-N-cyclopropyl-acetamide] | 1 | 
CNC(=O)CSc1ncco1 [Compound A-59, N-methyl-2-oxazol-2-ylsulfanyl-acetamide] | 1 | 
OCCSc1nc(-c2ccccc2)c(-c2ccccc2)o1 [Compound A-60, 2-(4,5-diphenyloxazol-2-yl) sulfanylethanol] | 0 | 
CCC(=O)CSc1nc(-c2ccccc2)c(-c2ccccc2)o1 [Compound A-61, 1-(4,5-diphenyloxazol-2-yl)sulfanylbutan-2-one] | 0 | 
CNCCc1nc(-c2ccccc2)c(-c2ccccc2)o1.Cl [Compound A-62, 2-(4,5-diphenyloxazol-2-yl)ethyl-methyl-ammonium; chloride] | 0 | 
COC(=O)NCCc1nc(-c2ccccc2)c(-c2ccccc2)o1 [Compound A-63, methyl N-[2-(4,5-diphenyloxazol-2-yl)ethyl]carbamate] | −1 | 
CNC(=O)CSc1ncc(-c2ccccc2)[nH]1 [Compound A-64] | −1 | 
CC(C)CNC(=O)CSc1nc(-c2ccccc2)c(-c2ccccc2)o1 [Compound A-65, 2-(4,5-diphenyloxazol-2-yl)sulfanyl-N-isobutyl-acetamide] | −1 | 
O=C(CSc1ncco1)NC1CC1 [Compound A-66, N-cyclopropyl-2-oxazol-2-ylsulfanyl-acetamide] | −1 | 
COCC(C)NC(=O)CSc1nc(-c2ccccc2)c(-c2ccccc2)o1 (stereo not drawn) [Compound A-67, 2-(4,5-diphenyloxazol-2-yl)sulfanyl-N-(2-methoxy-1-methyl-ethyl)acetamide] | −2 | 
CNC(=O)CSc1nc(-c2ccc(C)cc2)c(-c2ccc(C)cc2)o1 [Compound A-68, 2-[4,5-bis(p-tolyl)oxazol-2-yl]sulfanyl-N-methyl-acetamide] | −2 | 

Structure (SMILES) | relative TRPM8 activation [%] | other results
CNC(=O)C(C)Sc1nc(-c2ccc(OC)cc2)c(-c2ccc(OC)cc2)o1 (stereo not drawn) [Compound A-69, 2-[4,5-bis(4-methoxyphenyl)oxazol-2-yl]sulfanyl-N-methyl-propanamide] | −2 | 
CCCCNC(=O)CSc1nc(-c2ccccc2)c(-c2ccccc2)o1 [Compound A-70, N-butyl-2-(4,5-diphenyloxazol-2-yl)sulfanyl-acetamide] | −2 | 
CN(C)c1nc(-c2ccccc2)c(-c2ccccc2)o1 [Compound A-71, N,N-dimethyl-4,5-diphenyl-oxazol-2-amine] | −3 | 
CNC(=O)CSc1nc(-c2ccc(OC)cc2)c(-c2ccc(OC)cc2)o1 [Compound A-72, 2-[4,5-bis(4-methoxyphenyl)oxazol-2-yl]sulfanyl-N-methyl-acetamide] | −5 | 
COC(=O)CCc1nc(-c2ccccc2)c(-c2ccccc2)o1 [Compound A-73, methyl 3-(4,5-diphenyloxazol-2-yl)propanoate] | −5 | 
CCC(Sc1nnc(-c2ccccc2)c(-c2ccccc2)n1)C(=O)NC (stereo not drawn) [Compound B-03, 2-[(5,6-diphenyl-1,2,4-triazin-3-yl)sulfanyl]-N-methyl-butanamide] |  | EC50 [1]: ≤ 1000 nM; EC50 (Table 5, read-out: TRPM8 EC50): 70 nM; EC50 (Table 7, read-out: TRPM8 EC50): 70 nM
CNC(=O)CSc1cnc(-c2ccccc2)c(-c2ccccc2)n1 [Compound B-04, 2-(5,6-diphenylpyrazin-2-yl)sulfanyl-N-methyl-acetamide] |  | EC50 [1]: ≤ 1000 nM; EC50 (Table 5, read-out: TRPM8 EC50): 370 nM; EC50 (Table 7, read-out: TRPM8 EC50): 370 nM
CCC(Sc1nnc(-c2ccccc2)c(-c2ccccc2)n1)C(=O)N(C)C (stereo not drawn) [Compound B-05, 2-[(5,6-diphenyl-1,2,4-triazin-3-yl)sulfanyl]-N,N-dimethyl-butanamide] |  | EC50 [1]: ≤ 1000 nM; EC50 (Table 5, read-out: TRPM8 EC50): 100 nM; EC50 (Table 7, read-out: TRPM8 EC50): 100 nM
CC(Sc1nnc(-c2ccccc2)c(-c2ccccc2)n1)C(=O)N1CCCC1 (stereo not drawn) [Compound B-18, 2-[(5,6-diphenyl-1,2,4-triazin-3-yl)sulfanyl]-1-pyrrolidin-1-yl-propan-1-one] |  | EC50 (Table 5, read-out: TRPM8 EC50): 5360 nM; EC50 (Table 7, read-out: TRPM8 EC50): 5360 nM
CC(Sc1nnc(-c2ccccc2)c(-c2ccccc2)n1)C(=O)NC1CCCC1 (stereo not drawn) [Compound B-22, N-cyclopentyl-2-[(5,6-diphenyl-1,2,4-triazin-3-yl)sulfanyl]propanamide] | 87 | 
CN(C)C(=O)CSc1cnc(-c2ccccc2)c(-c2ccccc2)n1 [Compound B-23, 2-(5,6-diphenylpyrazin-2-yl)sulfanyl-N,N-dimethyl-acetamide] | 73 | 
O=C(CSc1cnc(-c2ccccc2)c(-c2ccccc2)n1)NC1CC1 [Compound B-24, N-cyclopropyl-2-(5,6-diphenylpyrazin-2-yl)sulfanyl-acetamide] | 68 | 
CC(C)C(=O)CSc1nnc(-c2ccccc2)c(-c2ccccc2)n1 [Compound B-25, 1-[(5,6-diphenyl-1,2,4-triazin-3-yl)sulfanyl]-3-methyl-butan-2-one] | 57 | 
CNC(=O)CCSc1nnc(-c2ccccc2)c(-c2ccccc2)n1 [Compound B-26, 3-[(5,6-diphenyl-1,2,4-triazin-3-yl)sulfanyl]-N-methyl-propanamide] | 56 | 
CN(C)C(=O)CSc1nnc(-c2ccccc2)c(-c2ccccc2)n1 [Compound B-27, 2-[(5,6-diphenyl-1,2,4-triazin-3-yl)sulfanyl]-N,N-dimethyl-acetamide] | 56 | 
CC(Sc1nnc(-c2ccccc2)c(-c2ccccc2)n1)C(=O)NCc1ccco1 (stereo not drawn) [Compound B-28, 2-[(5,6-diphenyl-1,2,4-triazin-3-yl)sulfanyl]-N-(2-furylmethyl)propanamide] | 53 | 
CCC(=O)C(C)Sc1nnc(-c2ccccc2)c(-c2ccccc2)n1 (stereo not drawn) [Compound B-29, 2-[(5,6-diphenyl-1,2,4-triazin-3-yl)sulfanyl]pentan-3-one] | 42 | 

Source: US20250163006A1, “New Coolants, and Preparations Containing Same” (Symrise AG, priority 2022, published 2025)
